Measurements taken from EP4806892A1, “CEREBLON E3 UBIQUITIN LIGASE INHIBITOR” (GAN & LEE PHARMACEUTICALS CO., LTD., priority 2023, dated 2025).

Experiments:
VCaP cell = VCaP cell proliferation inhibition (WST-8); format: cell-based; details: Homo sapiens, VCaP cells, 168 hours, read-out: IC50 for inhibiting VCAP cell proliferation
Experimental: VCaP cells (ATCC, CRL-2876) were cultured in DMEM (Gibco, 11995-065) complete medium containing 10% fetal bovine serum (Hyclone, SH30406.05). On the first day of the experiment, VCaP cells were seeded at a density of 15,000 cells/well in a 96-well plate using DMEM medium containing 10% fetal bovine serum, with 100 µL of cell suspension per well, and cultured overnight in a cell culture incubator at 37°C and 5% CO2. […] The final concentration of the compound was 9 concentration points of 5-fold serial dilution starting from 10 µM. The wells to which 100 µL of DMEM medium containing 10% fetal bovine serum was added were set as blank controls and cultured in a cell culture incubator at 37°C and 5% CO2 for 168 hours. On the ninth day, the 96-well cell culture plate was removed and 1/10 volume of WST-8 (Beytime, C0040) reagent was added to each well. The absorbance at 450 nm was measured using a microplate reader (TECAN, F50).

AR protein = molecular target: T1, AR protein (Homo sapiens, UniProt P10275, T878A); assay: AR protein degradation in LNCaP cells (Western blot); format: cell-based; details: 8 hours
T1 construct: AR-positive human prostate cancer cells (LNCaP, cell source: ATCC); host or cells: LNCaP
T1 sequence (P10275 whole entry T878A): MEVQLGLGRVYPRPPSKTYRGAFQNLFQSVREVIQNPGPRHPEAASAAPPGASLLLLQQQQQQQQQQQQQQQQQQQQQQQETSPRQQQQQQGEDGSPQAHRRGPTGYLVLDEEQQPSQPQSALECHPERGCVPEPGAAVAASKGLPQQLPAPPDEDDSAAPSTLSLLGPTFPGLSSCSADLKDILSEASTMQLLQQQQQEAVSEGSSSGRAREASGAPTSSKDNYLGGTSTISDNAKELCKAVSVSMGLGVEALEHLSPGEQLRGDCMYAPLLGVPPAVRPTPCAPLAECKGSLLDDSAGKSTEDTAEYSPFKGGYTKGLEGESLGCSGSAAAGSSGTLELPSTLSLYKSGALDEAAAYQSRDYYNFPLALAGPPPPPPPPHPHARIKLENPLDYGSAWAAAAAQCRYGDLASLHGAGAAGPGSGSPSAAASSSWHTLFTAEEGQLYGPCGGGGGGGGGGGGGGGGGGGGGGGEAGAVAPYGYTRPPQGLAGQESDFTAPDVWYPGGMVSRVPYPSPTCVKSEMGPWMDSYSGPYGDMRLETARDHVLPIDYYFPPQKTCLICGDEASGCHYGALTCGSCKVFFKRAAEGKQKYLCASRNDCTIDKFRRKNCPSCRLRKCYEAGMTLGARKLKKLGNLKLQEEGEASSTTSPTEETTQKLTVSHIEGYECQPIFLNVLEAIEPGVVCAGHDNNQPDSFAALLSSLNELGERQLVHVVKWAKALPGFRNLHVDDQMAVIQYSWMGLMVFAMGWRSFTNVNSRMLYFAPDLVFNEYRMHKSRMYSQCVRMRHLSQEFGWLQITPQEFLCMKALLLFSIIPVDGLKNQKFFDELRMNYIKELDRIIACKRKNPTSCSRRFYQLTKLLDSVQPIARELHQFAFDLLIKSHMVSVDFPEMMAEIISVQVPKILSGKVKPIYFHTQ
T1 sequence (Q96SW2 whole entry partner): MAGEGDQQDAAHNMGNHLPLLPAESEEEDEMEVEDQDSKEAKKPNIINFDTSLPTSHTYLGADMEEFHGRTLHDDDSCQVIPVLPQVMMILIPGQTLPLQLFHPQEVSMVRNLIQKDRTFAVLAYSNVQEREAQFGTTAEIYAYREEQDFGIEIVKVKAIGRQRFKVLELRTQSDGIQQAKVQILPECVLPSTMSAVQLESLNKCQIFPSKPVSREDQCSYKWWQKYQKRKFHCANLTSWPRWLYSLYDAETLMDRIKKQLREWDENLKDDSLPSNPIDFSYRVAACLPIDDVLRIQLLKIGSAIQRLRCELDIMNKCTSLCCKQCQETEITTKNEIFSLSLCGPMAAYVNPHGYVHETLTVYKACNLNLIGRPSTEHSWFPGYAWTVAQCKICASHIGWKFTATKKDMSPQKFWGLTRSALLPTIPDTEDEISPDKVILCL
Experimental: AR-positive human prostate cancer cells (LNCaP, cell source: ATCC) were cultured in RPMI 1640 (ATCC catalog number 30-2001) containing 10% FBS (Hyclone catalog number SH30406.05), and the cells were inoculated into a six-well microplate (Thermo catalog number 140675) at a density of 1.5 × 10^5 cells/well. After the cells were cultured overnight in a carbon dioxide incubator (ESCO), the prepared compound of the present invention and the positive control sample ARV-766 (source: energy chemical) solution of different concentrations were added at a volume of 1 µL/well to make the final concentrations of the compound and the positive control sample reach 100nM and 10nM, respectively. At the same time, the corresponding solvent control was set and cultured for 8 hours. After 8 hours of culture, the culture medium was removed, the cells were washed with PBS, and RIPA lysis buffer containing 1% Protease Inhibitor Cocktail was added. After lysis and centrifugation, the total protein extract was obtained, and the protein concentration in the extract was detected by BCA method. Protein electrophoresis was performed using SDS-PAGE, and then the protein was transferred to a PVDF (Millipore Sigma catalog number PSRP010R5) membrane at a constant voltage of 100V for 60 minutes. The PVDF membrane was placed in a 5% milk powder 1×TBST solution and blocked at room temperature for 1 hour. The primary antibody solution (Anti-Androgen receptor, Cell Signaling Technology catalog number: 5153S; 1:2000 dilution) was prepared and incubated at 4°C overnight. The primary antibody solution was discarded and the PVDF membrane was washed with 1×TBST for 5 minutes each time, three times. The secondary antibody solution (Thermo, catalog number SA5-35571; 1:7500 dilution) was prepared and incubated at room temperature for 1 hour. The secondary antibody solution was discarded and the PVDF membrane was washed with 1×TBST for 5 minutes each time, three times. A dual-color infrared laser imaging system (Licor catalog number Odyssey CLX) was used for Western membrane imaging. The Image Studio software was used to analyze the grayscale of the bands. GAPDH protein bands were also detected for each sample as an internal reference. The AR protein degradation rate of the compound and the positive control sample was calculated based on the grayscale of the protein bands. Among them, "A" means degradation rate ≥ 50%, "B" means 50%> degradation rate ≥ 20%, "C" means 20% degradation rate ≥ 10%, and "D" means degradation rate less than 10%.

Compound | IC50 (VCaP cell) [nM] | Degradation rate of AR protein in LNCAP cells (AR protein; 10 nM) | Degradation rate of AR protein in LNCAP cells (AR protein; 100 nM)
C[C@H]1CC2(CCN(c3ccc(C(=O)N4CCC(CN5CCN6c7ccc(N8CCC(=O)NC8=O)cc7OCC[C@H]6C5)CC4)cc3)CC2)CN1c1ccc(C#N)c(C(F)(F)F)c1 [A-P-195] | 13 | A (degradation rate ≥ 50%) | A (degradation rate ≥ 50%)
COc1cc(O[C@H]2C(C)(C)[C@H](NC(=O)c3ccc(N4CCC(F)(CN5CCN6c7ccc(N8CCC(=O)NC8=O)cc7OCC[C@H]6C5)CC4)cc3)C2(C)C)ccc1C#N [A-P-196] | 1 | B (50%> degradation rate ≥ 20%) | A (degradation rate ≥ 50%)
C[C@H]1CC2(CCN(c3ccc(C(=O)N4CCC(CN5CCC6(COc7cc(N8CCC(=O)NC8=O)ccc76)C(F)(F)C5)CC4)cc3)CC2)CN1c1ccc(C#N)c(Cl)c1 (stereo partly drawn) [A-P-233] | 15 | A (degradation rate ≥ 50%) | A (degradation rate ≥ 50%)
C[C@H]1CC2(CCN(c3ccc(C(=O)N4CCC(CN5CCC6(CC5)CN(C)c5ccc(N7CCC(=O)NC7=O)cc5O6)CC4)cc3)CC2)CN1c1ccc(C#N)c(Cl)c1 [A-P-235, (S)-2-chloro-4-(8-(4-(4-((7-(2,4-dioxotetrahydropyrimidin-1(2H)-yl)-4-methyl-3,4-dihydrospiro[benzo[b][1,4]oxazin-2,4'-piperidine]-1'-yl)methyl)piperidine-1-carbonyl)phenyl)-3-methyl-2,8-diazaspiro[4.5]decane-2-yl)benzonitrile] | 1 | A (degradation rate ≥ 50%) | A (degradation rate ≥ 50%)
COc1cc(O[C@H]2C(C)(C)[C@H](NC(=O)c3ccc(N4CCC(CN5CCN(c6ccc(C(=O)N[C@H]7CCC(=O)NC7=O)c(F)c6)CC5)CC4)cc3)C2(C)C)ccc1C#N [ARV766, reference compound] | 2.5 | B (50%> degradation rate ≥ 20%) | A (degradation rate ≥ 50%)
